Results: ChEMBL document CHEMBL1201862, “PubChem BioAssay data set” (2004)
Calls of active or inactive are those of the source.

Key:
[1] = system: Trypanosoma cruzi; test: growth inhibition of intracellular Trypanosoma cruzi, dose response, cell-based, plate reader, dry powder, set 3 (AID 493197); assay type: functional
[2] = cytotoxicity in NIH/3T3 mouse fibroblasts, dose response, cytotoxicity control, cell-based, mouse embryonic fibroblasts, dry powder, set 2 (AID 493247); assay type: functional; details: Fibroblast
[3] = inhibitors of Trypanosoma cruzi host-cell infection, confirmation, beta-gal luminescence, NIH3T3 host cells (AID 2630); assay type: functional, cell-based; details: Mus musculus
[4] = molecular target: T1, Ubiquitin-conjugating enzyme E2 N (Homo sapiens, UniProt P61088); assay type: functional;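 further: Dose-response confirmation in a TR-FRET assay detecting UBC13-driven polyubiquitin chain formation, inhibition measured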
T1 sequence (P61088 whole entry): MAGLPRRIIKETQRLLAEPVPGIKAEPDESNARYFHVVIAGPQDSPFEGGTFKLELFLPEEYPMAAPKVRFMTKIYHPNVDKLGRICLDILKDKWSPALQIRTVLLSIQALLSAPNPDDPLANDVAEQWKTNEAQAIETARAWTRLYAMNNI

[5] = molecular target: T2, DNA repair protein RAD52 homolog (Homo sapiens, UniProt P43351); assay type: functional, biochemical
T2 sequence (P43351 whole entry): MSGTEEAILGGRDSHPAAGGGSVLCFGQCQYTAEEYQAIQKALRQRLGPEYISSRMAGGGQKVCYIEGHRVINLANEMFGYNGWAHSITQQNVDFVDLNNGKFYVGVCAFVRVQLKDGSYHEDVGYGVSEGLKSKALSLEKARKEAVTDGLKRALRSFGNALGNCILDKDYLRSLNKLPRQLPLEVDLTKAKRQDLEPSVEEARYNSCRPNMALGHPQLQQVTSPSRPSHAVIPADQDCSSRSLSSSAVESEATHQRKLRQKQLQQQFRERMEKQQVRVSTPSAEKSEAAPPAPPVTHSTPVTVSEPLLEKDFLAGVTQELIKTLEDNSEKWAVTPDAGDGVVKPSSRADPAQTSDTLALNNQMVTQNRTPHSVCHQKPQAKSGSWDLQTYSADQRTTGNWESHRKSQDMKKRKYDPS

[6] = system: A-375; test: MITF: Counter assay: A375 proliferation Measured in Cell-Based System Using Plate Reader - 2084-03_Inhibitor_Dose_DryPowder_Activity. [Related pubchem assays (depositor defined):AID488944]; assay type: functional; details: Homo sapiens
[7] = molecular target: T3, Microphthalmia-associated transcription factor (Homo sapiens, UniProt O75030); test: TRPM1 promoter luciferase signal decrease, dose response, MITF inhibitor project, cell-based, SK-MEL-5, cherry-picked, set 3 (AID 493073); assay type: functional
T3 sequence (O75030 whole entry): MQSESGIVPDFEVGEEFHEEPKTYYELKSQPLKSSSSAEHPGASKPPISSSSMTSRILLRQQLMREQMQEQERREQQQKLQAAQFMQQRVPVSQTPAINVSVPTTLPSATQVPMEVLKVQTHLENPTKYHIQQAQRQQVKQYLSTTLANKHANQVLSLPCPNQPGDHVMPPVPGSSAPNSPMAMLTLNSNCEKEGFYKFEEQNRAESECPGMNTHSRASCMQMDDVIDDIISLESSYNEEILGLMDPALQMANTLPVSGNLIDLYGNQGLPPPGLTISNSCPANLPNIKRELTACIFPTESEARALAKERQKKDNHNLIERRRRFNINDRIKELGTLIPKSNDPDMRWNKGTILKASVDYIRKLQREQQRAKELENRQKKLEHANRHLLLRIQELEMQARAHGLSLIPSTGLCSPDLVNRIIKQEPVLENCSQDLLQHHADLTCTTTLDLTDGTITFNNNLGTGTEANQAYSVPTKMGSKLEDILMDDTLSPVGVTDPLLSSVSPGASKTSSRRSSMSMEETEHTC

[8] = molecular target: Dual specificity protein phosphatase 3 (Homo sapiens, UniProt P51452); test: SAR VHR1 Fluorescent Assay for In Vitro dose response studies Set 3. [Related pubchem assays (depositor defined):AID1654, AID1661, AID1878]; assay type: functional
Sequence of Dual specificity protein phosphatase 3 (P51452 whole entry): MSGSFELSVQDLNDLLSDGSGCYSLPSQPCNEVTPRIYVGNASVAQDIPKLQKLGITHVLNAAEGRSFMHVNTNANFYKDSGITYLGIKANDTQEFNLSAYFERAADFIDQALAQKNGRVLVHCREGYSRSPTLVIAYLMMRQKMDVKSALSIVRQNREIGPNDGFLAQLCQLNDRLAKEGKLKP

[9] = system: Escherichia coli; test: microbe, parasite or virus in culture
[10] = molecular target: Sphingosine 1-phosphate receptor 3 (Homo sapiens, UniProt Q99500); test: Late stage counterscreen assay for S1P4 antagonists: Fluorescence dose response cell-based screening assay for antagonists of the Sphingosine 1-Phosphate Receptor 3 (S1P3). [Related pubchem assays (depositor defined):AID1510, AID1524, AID1692, AID1853, AID2332, AID489009, AID489017]; assay type: functional
Sequence of Sphingosine 1-phosphate receptor 3 (Q99500 whole entry): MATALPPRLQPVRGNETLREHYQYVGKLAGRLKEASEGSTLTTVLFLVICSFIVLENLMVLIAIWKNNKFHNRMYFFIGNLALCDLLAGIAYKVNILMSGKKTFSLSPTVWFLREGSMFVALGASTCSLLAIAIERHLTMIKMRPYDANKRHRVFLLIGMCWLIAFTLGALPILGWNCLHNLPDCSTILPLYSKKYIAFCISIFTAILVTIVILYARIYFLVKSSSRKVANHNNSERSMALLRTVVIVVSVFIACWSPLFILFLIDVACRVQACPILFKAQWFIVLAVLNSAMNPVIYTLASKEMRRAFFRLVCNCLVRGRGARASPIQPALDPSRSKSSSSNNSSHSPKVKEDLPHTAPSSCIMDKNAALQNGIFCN

[11] = molecular target: Sphingosine 1-phosphate receptor 5 (Homo sapiens, UniProt Q9H228); test: Late stage counterscreen assay for S1P4 antagonists: Fluorescence dose response cell-based screening assay for antagonists of the Sphingosine 1-Phosphate Receptor 5 (S1P5). [Related pubchem assays (depositor defined):AID1510, AID1524, AID1692, AID1853, AID2332, AID489009, AID489017]; assay type: functional
Sequence of Sphingosine 1-phosphate receptor 5 (Q9H228 whole entry): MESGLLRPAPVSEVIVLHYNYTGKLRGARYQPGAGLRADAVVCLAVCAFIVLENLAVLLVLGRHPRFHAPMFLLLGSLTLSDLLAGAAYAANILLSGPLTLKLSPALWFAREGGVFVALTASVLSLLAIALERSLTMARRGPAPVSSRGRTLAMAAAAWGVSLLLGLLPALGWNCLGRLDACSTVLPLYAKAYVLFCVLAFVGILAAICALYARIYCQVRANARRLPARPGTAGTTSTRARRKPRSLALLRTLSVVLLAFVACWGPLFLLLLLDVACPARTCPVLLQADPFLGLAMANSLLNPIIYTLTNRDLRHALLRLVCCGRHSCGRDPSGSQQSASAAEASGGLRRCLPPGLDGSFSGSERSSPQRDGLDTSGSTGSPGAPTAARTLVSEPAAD

[12] = molecular target: Sphingosine 1-phosphate receptor 1 (Homo sapiens, UniProt P21453); test: Late stage counterscreen assay for S1P4 antagonists: Fluorescence dose response cell-based screening assay for antagonists of the Sphingosine 1-Phosphate Receptor 1 (S1P1). [Related pubchem assays (depositor defined):AID1510, AID1524, AID1692, AID1853, AID2332, AID489009, AID489017]; assay type: functional
Sequence of Sphingosine 1-phosphate receptor 1 (P21453 whole entry): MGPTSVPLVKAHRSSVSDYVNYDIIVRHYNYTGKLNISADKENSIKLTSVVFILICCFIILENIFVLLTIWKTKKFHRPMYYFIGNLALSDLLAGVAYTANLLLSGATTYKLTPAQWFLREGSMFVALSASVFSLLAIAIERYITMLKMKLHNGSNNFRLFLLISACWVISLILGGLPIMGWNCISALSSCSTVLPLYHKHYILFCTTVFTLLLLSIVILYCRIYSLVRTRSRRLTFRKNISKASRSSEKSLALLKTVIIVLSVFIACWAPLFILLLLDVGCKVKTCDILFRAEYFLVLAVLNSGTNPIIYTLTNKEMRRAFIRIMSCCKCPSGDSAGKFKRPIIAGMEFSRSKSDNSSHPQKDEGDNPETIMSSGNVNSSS

[13] = molecular target: Sphingosine 1-phosphate receptor 2 (Homo sapiens, UniProt O95136); test: Late stage counterscreen assay for S1P4 antagonists: Fluorescence dose response cell-based screening assay for antagonists of the Sphingosine 1-Phosphate Receptor 2 (S1P2). [Related pubchem assays (depositor defined):AID1510, AID1524, AID1692, AID1853, AID2332, AID489009, AID489017]; assay type: functional
Sequence of Sphingosine 1-phosphate receptor 2 (O95136 whole entry): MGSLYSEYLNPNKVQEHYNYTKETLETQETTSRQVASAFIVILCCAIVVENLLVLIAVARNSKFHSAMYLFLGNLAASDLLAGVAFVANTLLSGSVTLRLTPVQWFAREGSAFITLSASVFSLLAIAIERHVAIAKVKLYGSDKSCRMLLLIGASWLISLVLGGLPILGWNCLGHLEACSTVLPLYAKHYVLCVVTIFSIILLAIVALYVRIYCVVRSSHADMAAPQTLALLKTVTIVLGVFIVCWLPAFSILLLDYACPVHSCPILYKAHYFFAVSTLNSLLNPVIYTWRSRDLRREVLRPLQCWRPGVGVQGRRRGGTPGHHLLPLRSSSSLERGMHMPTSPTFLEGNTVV

[14] = system: BJ; test: cytotoxicity toward BJ-TERT fibroblasts, dose response, cell-based, RAS-independent, luminescence (AID 1933); assay type: functional; details: Homo sapiens
[15] = molecular target: Beta-2 adrenergic receptor (Homo sapiens, UniProt P07550); test: beta2AR agonists driving receptor internalization, dose response, cell-based, FAP fluorogen, flow cytometry, cherry pick 1 (AID 588763); assay type: functional
Sequence of Beta-2 adrenergic receptor (P07550 whole entry): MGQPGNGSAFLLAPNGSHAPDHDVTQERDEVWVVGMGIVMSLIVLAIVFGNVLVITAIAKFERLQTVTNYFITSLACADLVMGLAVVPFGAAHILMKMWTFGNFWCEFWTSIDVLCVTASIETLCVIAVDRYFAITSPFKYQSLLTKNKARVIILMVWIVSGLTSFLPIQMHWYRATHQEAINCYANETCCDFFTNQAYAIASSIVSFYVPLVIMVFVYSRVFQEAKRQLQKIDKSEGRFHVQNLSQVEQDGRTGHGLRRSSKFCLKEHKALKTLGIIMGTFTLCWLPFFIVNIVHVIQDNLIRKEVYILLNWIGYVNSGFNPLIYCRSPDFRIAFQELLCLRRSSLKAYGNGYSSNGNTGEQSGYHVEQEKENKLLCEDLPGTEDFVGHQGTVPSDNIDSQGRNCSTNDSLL

[16] = cells; assay type: functional
[17] = molecular target: Heat shock protein HSP 90-alpha (Homo sapiens, UniProt P07900); assay type: functional, organism-based
[18] = system: BJ; test: cytotoxicity toward BJ-TERT-LT-ST fibroblasts, dose response, cell-based, RAS-independent, luminescence (AID 1935); assay type: functional; details: Homo sapiens;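 further: BJ fibroblasts immortalized with TERT plus LT and ST oncogenes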
[19] = molecular target: Apelin receptor (Homo sapiens, UniProt P35414); test: APJ beta-arrestin recruitment antagonism, SAR follow-up, selectivity assay for CCR6 antagonist project, cell-based, luminescent, enzyme-fragment complementation (AID 588359); assay type: functional
Sequence of Apelin receptor (P35414 whole entry, the tested form may be a part): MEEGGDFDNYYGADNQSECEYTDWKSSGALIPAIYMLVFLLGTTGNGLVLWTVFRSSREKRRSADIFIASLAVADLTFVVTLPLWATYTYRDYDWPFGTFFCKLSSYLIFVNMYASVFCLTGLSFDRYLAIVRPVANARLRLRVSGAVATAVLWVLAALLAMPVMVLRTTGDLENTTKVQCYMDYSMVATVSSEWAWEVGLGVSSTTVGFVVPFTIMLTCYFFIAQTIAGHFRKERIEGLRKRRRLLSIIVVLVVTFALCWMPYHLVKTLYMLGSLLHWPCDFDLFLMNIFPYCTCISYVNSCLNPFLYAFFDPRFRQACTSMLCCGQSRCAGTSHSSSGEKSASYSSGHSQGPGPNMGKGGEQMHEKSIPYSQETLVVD

[20] = molecular target: T4, Replicative DNA helicase DnaB (Mycobacterium tuberculosis, UniProt P9WMR3); test: DnaB intein splicing inhibitors, dose response, biochemical, cell-free fluorescence (AID 449749); assay type: functional
T4 sequence (P9WMR3 whole entry): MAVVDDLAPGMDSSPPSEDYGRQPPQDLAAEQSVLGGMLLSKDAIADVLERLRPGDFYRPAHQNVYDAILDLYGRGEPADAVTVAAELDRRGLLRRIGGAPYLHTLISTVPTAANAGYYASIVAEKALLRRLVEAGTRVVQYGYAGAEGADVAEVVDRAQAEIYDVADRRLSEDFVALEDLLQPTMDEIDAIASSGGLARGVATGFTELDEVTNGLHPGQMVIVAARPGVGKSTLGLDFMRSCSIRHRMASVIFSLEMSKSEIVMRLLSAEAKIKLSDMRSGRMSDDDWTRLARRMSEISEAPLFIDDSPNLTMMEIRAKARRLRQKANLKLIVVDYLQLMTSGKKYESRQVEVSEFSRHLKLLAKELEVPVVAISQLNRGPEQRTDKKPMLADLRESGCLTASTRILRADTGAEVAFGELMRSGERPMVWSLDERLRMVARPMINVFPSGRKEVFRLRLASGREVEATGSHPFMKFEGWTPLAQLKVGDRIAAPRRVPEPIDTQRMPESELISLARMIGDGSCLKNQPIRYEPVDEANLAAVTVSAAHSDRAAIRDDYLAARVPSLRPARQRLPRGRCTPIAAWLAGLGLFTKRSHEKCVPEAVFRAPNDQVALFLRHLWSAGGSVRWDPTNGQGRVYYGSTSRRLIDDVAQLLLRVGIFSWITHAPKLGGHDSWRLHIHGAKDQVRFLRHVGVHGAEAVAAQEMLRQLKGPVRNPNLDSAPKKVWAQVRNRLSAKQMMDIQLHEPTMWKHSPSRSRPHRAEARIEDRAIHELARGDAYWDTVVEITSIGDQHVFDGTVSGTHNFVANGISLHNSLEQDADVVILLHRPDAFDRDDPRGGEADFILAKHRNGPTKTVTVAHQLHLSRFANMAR

[21] = cytotoxicity toward DRD oncogenic fibroblasts, dose response, cell-based, non-viral oncogenic, luminescence (AID 1934); assay type: functional; details: Homo sapiens
[22] = molecular target: T5, Protein RecA (Mycobacterium tuberculosis, UniProt P9WHJ3); test: Fluorescence Cell-Free Homogeneous Dose Retest to Identify Inhibitors of RecA-Intein Splicing Activity. [Related pubchem assays (depositor defined):AID2097, AID2223, AID489010, AID492950]; assay type: functional
T5 sequence (P9WHJ3 whole entry): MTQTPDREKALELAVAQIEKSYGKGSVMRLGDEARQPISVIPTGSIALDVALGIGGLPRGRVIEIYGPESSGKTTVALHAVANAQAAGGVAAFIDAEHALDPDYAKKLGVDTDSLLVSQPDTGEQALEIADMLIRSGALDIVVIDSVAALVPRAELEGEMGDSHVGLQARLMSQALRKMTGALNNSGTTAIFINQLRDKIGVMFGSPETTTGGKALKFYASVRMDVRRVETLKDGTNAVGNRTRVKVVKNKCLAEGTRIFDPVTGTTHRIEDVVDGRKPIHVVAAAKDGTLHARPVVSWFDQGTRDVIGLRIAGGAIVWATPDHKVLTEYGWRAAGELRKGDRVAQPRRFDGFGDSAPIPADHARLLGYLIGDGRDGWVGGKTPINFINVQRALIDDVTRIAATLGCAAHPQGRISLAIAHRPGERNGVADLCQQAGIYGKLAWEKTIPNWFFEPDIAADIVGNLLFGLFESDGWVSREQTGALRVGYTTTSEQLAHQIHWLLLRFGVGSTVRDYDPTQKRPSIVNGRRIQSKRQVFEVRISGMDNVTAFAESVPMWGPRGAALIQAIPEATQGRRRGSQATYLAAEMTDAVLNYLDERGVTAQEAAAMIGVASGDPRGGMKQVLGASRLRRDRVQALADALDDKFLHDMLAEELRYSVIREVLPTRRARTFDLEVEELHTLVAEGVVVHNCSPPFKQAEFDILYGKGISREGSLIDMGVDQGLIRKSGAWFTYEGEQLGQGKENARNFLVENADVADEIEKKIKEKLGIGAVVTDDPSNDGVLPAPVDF

[23] = THP-1 cell cytotoxicity, dose response, cytotoxicity control for non-replicating M. tuberculosis project (AID 489025); assay type: functional
[24] = HepG2 cell cytotoxicity, dose response, cytotoxicity control for non-replicating M. tuberculosis project (AID 489018); assay type: functional; details: Mycobacterium tuberculosis
[25] = inhibitors of intracellular T. cruzi replication, confirmation, NIH3T3 host cells, beta-gal luminescence (AID 2044); assay type: functional, cell-based;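 further: intracellular parasites grown in NIH/3T3 mouse fibroblasts as host cells; luminescent beta-galactosidase reporter signal from transgenic T. cruzi replicating inside host cells; inhibitors lower the luminescence signal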
[26] = molecular target: Beta-galactosidase (Escherichia coli, UniProt Q8VNN2); test: beta-galactosidase enzyme inhibitors and activators, dose response, artefact control for CCR6 antagonist project, biochemical, E. coli enzyme, set 3 (AID 504712); assay type: functional
Sequence of Beta-galactosidase (Q8VNN2 whole entry): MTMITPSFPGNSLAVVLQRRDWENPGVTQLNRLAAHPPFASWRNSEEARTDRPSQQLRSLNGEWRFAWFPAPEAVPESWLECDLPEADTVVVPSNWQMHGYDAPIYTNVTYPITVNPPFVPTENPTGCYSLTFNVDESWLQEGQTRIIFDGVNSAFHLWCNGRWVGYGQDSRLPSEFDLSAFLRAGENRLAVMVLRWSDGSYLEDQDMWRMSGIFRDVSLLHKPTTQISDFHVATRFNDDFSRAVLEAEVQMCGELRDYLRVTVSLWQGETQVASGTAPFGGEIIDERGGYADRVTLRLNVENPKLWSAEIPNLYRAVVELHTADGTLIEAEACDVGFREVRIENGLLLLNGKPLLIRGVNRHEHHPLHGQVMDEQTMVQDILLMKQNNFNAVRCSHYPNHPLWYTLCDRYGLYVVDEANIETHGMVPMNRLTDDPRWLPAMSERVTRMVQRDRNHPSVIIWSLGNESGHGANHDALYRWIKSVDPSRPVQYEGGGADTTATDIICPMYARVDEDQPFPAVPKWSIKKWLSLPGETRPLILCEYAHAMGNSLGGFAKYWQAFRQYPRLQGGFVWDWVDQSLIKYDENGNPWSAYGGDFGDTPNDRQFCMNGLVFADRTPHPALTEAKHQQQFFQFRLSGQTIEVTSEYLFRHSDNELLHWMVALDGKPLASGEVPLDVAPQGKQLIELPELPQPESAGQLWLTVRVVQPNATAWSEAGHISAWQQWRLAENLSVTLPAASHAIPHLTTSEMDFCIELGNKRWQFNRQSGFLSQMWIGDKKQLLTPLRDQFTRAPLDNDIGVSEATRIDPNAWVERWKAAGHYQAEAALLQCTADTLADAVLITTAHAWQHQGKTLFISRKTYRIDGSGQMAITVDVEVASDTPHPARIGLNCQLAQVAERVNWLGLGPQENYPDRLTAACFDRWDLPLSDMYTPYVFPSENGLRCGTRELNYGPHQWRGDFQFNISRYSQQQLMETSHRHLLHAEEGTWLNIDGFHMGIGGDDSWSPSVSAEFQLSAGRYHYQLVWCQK

[27] = Vero E6 cell cytotoxicity, dose response, cytotoxicity control for non-replicating M. tuberculosis project, secondary assay (AID 492998); assay type: functional, VeroE6; details: Vero C1008
[28] = system: BJ; test: cells; assay type: functional, cell-based; details: Homo sapiens
[29] = cytotoxicity toward NIH3T3 fibroblasts, dose response, counter-screen, cell-based, ATP luminescence, mouse fibroblasts (AID 2010); assay type: functional;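 further: cells exposed to compound for about 90 hours before reading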

## CN(Cc1ccccc1)C(=O)C1CCCN(Cc2ccccc2C(F)(F)F)C1 (centres undefined)
[1]
  AC50: 15.9 µM (active)
[2]
  AC50: 63.3 µM (active)
[3]
  EC50: 4.64 µM (active)

## CN1CCC(N(C)C(=O)/C=C/c2cn(-c3ccccc3)nc2-c2cccs2)CC1
[4]
  IC50: > 20 µM (inactive)
[5]
  AC50: 12.2 µM (active)
[6]
  AC50: 30.5 µM (active)
[7]
  AC50: 9.82 µM (active)

## CCOc1cccc2sc(NC(=O)c3ccc(OC)cc3)nc12
[8]
  IC50: 51.7 µM (active)

## COC(=O)c1cnc(NNS(=O)(=O)c2ccc(C(F)(F)F)cc2)nc1C(F)(F)F
[9]
  AC50: > 380 µM (inactive)

## Cc1cccc(Cl)c1NC(=O)c1ccc(-c2cc(Cl)ccc2Cl)o1
[10]
  IC50: > 25 µM (inactive)
[11]
  IC50: > 25 µM (inactive)
[12]
  IC50: > 25 µM (inactive)
[13]
  IC50: 9.5 µM (active)

## O=[N+]([O-])c1ccc(S(=O)(=O)c2cccc(C(F)(F)F)c2)nc1
[14]
  EC50: 2.55 µM (inconclusive)
[15]
  EC50: 7.62 µM (inactive)
[16]
  IC50: 3.47 µM (active)
[17]
  AC50: 1.84 µM (active)
[18]
  EC50: 10.8 µM (inconclusive)
[19]
  IC50: 18.8 µM (active)
[20]
  AC50: > 380 µM (inactive)
[21]
  EC50: 6.52 µM (active)
[22]
  EC50: 14.2 µM (active)
[23]
  CC50: 28.8 µM (active)
[24]
  CC50: > 20 µM (active)
[25]
  EC50: 0.913 µM (active)
[26]
  IC50: > 66.6 µM (inactive)
[27]
  CC50: 14.8 µM (active)
[28]
  EC50: 12.1 µM (inconclusive)
[29]
  EC50: 2.06 µM (active)
